Reference: patent US20220054496A1, “MODULATION OF TRF1 FOR BRAIN CANCER TREATMENT” (Fundación Del Sector Público Estatal Centro Nacional De …, priority 2018, published 2022)
“Also recorded” adds a separate entry of the source.

How the values were obtained:
[1] = Sickness, morbidity and pathologies of xenograft mice after long-term treatment; type: in vivo
Experimental: (§1) h676 and h543 patient-derived GSCs were dissociated using a 200 μl pipet and resuspended in NeuroCult medium and matrigel in a 1:1 ratio in a concentration of 1000 cell/μl. Nude mice (athymic Nude-Foxn1^nu/nu from Harlan) were injected subcutaneously with 100 μl of the cell preparation. ETP-47037 (or vehicle) was orally administrated at a concentration of 75 mg/kg 5 days per week (see also section 8), starting one week after cell injection. The vehicle consisted in 10% N-methyl-2-pyrrolidone (NMP, Sigma Aldrich) and 90% poly ethylene glycol (PEG, Sigma Aldrich). Mice were weighted and tumors were measured every 2-4 days. Tumor area was determined by the following equation: A=π*(a/2)*(b/2), were a and b are tumor length and width respectively.
Histopathological analysis was performed in paraffin embedded tissue sections stained with hematoxylin and eosin (H&E), with the assistance of the CNIO Histopathology Unit and Juana María Flores from the Universidad Complutense de Madrid (UCM).
(§2) Next, the present inventors set to address whether TRF1 chemical inhibition was able to block tumor growth in vivo. […] Thus, the two independent primary GSCs (h676 and h543) were injected subcutaneously into nude mice. […]

[2] = Crossing of the brain blood barrier
[3] = system: h543 GSCs xenografts; assay: Subcutaneous xenograft of patient-derived h543 GSCs in nude mice; type: in vivo; settings: oral 75 mg/kg 5 days/week, vs vehicle
Experimental: as §1
(§3) For oral administration, ETP-47037 was dissolved in 10% N-methyl-2-pyrrolidone (NMP, Sigma Aldrich) and 90% polyethylene glycol (PEG, Sigma Aldrich) at a concentration of 75 mg/kg.
as §2

[4] = system: U251 cells; assay: Neurosphere formation assay in U251 cells; type: cell-based, human; settings: U251 in NSC media; seven days; vs DMSO
Experimental: (§4) Spheres were dissociated into single cells and seeded at a density of 50, 100, 200 and 400 cells/well in a 96 well plate. Neurosphere number was assessed after 7 days. Pictures were taken using Nikon Eclipse Ti-U microscope and neurosphere diameter was measured using NIS Elements BR software.
Finally, the present inventors checked if the three chemical compounds had the ability to reduce sternness in these cells. They cultured U251 cells with NSC media in order to obtain a suspension culture enriched in stem cells. The inventors performed a sphere formation assay with these cells treated with ETP-47228, ETP-47037 and ETP-50946 or DMSO for seven days. […] Of note, all these effects recapitulated what the present inventors observed with Trf1 genetic downregulation (See 2.2).

[5] = system: h676 GSCs xenografts; assay: Subcutaneous xenograft of patient-derived h676 GSCs in nude mice; type: in vivo
Experimental: as §1, §3
Next, the present inventors set to address whether TRF1 chemical inhibition was able to block tumor growth in vivo. […] Thus, the two independent primary GSCs (h676 and h543) were injected subcutaneously into nude mice. One week after GSC injection, mice received oral administration of the vehicle (NMP 10%, PEG 90%) as placebo or the ETP-47037 TRF1 inhibitor 5 days/week, every week until human endpoint, and tumors were continuously followed-up by caliper measurements (FIG. 42A).

[6] = system: TRF1; assay: Western blot of total TRF1 protein in U251 cells; type: cell-based, human; settings: 10 μM, 24 h or 48 hr
Experimental: Nuclear protein extracts were obtained using Nuclear Cytosolic Fractionation Kit (Biovision) and protein concentration was determined using the Bio-Rad DC Protein Assay (Bio-Rad). Up to 15 μg of protein per extract were separated in SDS-polyacrylamide gels by electrophoresis. After protein transfer onto nitrocellulose membrane (Whatman), the membranes were incubated with the indicated antibodies. Antibody binding was detected after incubation with a secondary antibody coupled to horseradish peroxidase using chemiluminescence with ECL detection KIT (GE Healthcare)
Quantifications: Protein-band intensities were measured with ImageJ software and normalized against the loading control.
(§5) For in vitro studies, ETP-47228 ETP-47037 and ETP-50946 were dissolved in DMSO at a final concentration of 10 or 5 mM. Cells were treated at a concentration of 10 μM for 24 h or 48 hr.
(§6) To address whether these small molecules could represent a new therapeutic strategy for the treatment of GBM, the present inventors first tested the ability of the three independent TRF1 inhibitory molecules (ETP-47228, ETP-47037 and ETP-50946) to downregulate TRF1 protein levels in the U251 human GBM cell line.

[7] = system: h676 GSCs; assay: Sphere formation assay in patient-derived h676 GSCs; type: cell-based, human; settings: vs untreated controls
Experimental: (§7) FIG. 48. […] (A) Dose-response curves of the h676 GSCs treated 7 days with the indicated compounds. (B) Dose-response curves of the h543 GSCs treated 7 days with the indicated compounds. Data are represented as mean±SD.
as §4
(§8) Given the promising results the present inventors obtained with the TRF1 chemical modulators in the U251 GBM cell line, the present inventors next set to address the effects of these compounds in two independent patient-derived primary GSCs (h543 and h676) cultures.
(§9) Next, the present inventors set to address whether the different compounds were able to block sphere formation in the h676 and h543 GSCs.

[8] = system: h543 GSCs; assay: Sphere formation assay in patient-derived h543 GSCs; type: cell-based, human; settings: vs untreated controls
Experimental: as §7, §4, §8, §9

[9] = system: TRF1; assay: TRF1 nuclear immunofluorescence (TRF1 foci) in U251 cells; type: cell-based, human; settings: 10 μM, 24 h or 48 hr
Experimental: For immunofluorescence analyses, cells were plated in a proper density in cell culture μCLEAR plates (Greiner) and fixed in 4% formaldehyde in PBS. Cells were permeabilized with 0.25% Triton in PBS and blocked with 5% BSA in PBS. Tissue sections were fixed in 10% buffered formalin (Sigma) and embedded in paraffin. After deparaffinization and citrate antigen retrieval, sections were permeabilized with 0.5% Triton in PBS and blocked with 1% BSA and 10% Australian FBS ([…]) in PBS. The antibodies were applied overnight in antibody diluents with background reducing agents (Invitrogen).
Immunofluorescence images were obtained using a confocal ultraspectral microscope (Leica TCS-SP5) or the Opera High Content Screening (HCS) system (Perkin Elmer). Quantifications were performed with Definiens software.
as §5, §6

[10] = system: K-Ras^G12V-induced lung tumors; settings: p53-deficient background; cited from earlier work
[11] = GSC-derived xenografts, vs vehicle

CS(=O)(=O)N1CCN(Cc2cc3c(N4CCOCC4)nc(-c4cnc(N)nc4)cn3n2)CC1 [ETP-47037]
Mice pathologies after long-term treatment ([1]; one line per mouse (Mice 1-4)): Mice 3: dermatitis; also recorded: Mice 4: dermatitis; also recorded: Mice 2: dermatitis
signs of sickness or morbidity ([1]; treated cohorts compared to the placebo group): did not detect any signs of sickness or morbidity
crossing the brain blood barrier [2]: not crossing the brain blood barrier
tumor areas (caliper follow-up) [3]: drastic reduction
diameter of neurospheres [4]: strong reduction
number of neurospheres [4]: strong reduction
proliferation marker Ki67-positive cells in tumors [5, 11]: reduces proliferation
γH2AX DNA damage marker positive cells in tumors [5, 11]: induces DNA damage
tumor areas (caliper follow-up) ([5]; h676 xenograft, oral 75 mg/kg 5 days/week, vs vehicle): drastic reduction
decrease of TRF1 protein levels in tumors (immunofluorescence) ([5]; h676 xenograft, vs placebo): 80%
tumor size post-mortem ([5]; h676 xenograft, vs placebo): striking decrease
tumor weight post-mortem ([5]; h676 xenograft, vs placebo): striking decrease
histological analysis of the tumors ([5]; xenografts after treatment): decreased cellularity in the tumors, together with necrotic areas, apoptotic bodies, compacted chromatin and fragmented DNA
total TRF1 protein levels (western blot) [6]: effectively reduced
diameter of spheres [7]: significant drastic reduction
number of spheres [7]: significant drastic reduction
diameter of spheres [8]: significant drastic reduction
number of spheres [8]: significant drastic reduction
TRF1 foci (immunofluorescence) [9]: effectively reduced
growth of already established lung adenocarcinomas [10]: effectively impair the growth
